Reference: ChEMBL document CHEMBL1149270, “Design and synthesis of a potent and selective peptidomimetic inhibitor of caspase-3” (J Med Chem, 2004)

Assays:
Caspase-6 (Homo sapiens) = molecular target: T1, Caspase-6 (Homo sapiens) (UniProt P55212); assay: Effect on recombinant caspase 6 activity at 210 nM relative to control
T1 sequence (whole entry): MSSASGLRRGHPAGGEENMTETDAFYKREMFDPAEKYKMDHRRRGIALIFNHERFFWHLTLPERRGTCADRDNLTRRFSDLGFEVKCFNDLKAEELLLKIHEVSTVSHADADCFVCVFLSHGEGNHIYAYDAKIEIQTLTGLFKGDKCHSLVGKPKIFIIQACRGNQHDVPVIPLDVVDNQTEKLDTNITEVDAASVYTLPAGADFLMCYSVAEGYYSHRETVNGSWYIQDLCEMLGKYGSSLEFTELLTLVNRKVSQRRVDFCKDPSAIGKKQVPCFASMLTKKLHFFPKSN

Caspase-3 (Homo sapiens) = molecular target: T2, Caspase-3 (Homo sapiens) (UniProt P42574); assay: […] caspase 3 activity at 210 nM relative to control; design: scale not given: the % may be the effect or the level left
T2 sequence (whole entry): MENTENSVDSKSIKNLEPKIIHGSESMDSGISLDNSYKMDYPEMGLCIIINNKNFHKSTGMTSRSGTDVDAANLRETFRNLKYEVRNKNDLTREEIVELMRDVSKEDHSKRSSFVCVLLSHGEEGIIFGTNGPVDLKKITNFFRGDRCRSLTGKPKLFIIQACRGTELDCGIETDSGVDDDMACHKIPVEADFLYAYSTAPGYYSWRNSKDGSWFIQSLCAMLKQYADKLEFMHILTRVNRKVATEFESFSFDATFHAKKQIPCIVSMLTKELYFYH

Caspase-4 (Homo sapiens) = molecular target: T3, Caspase-4 (Homo sapiens) (UniProt P49662); assay: Effect on recombinant caspase 4 activity at 210 nM relative to control
T3 sequence (whole entry): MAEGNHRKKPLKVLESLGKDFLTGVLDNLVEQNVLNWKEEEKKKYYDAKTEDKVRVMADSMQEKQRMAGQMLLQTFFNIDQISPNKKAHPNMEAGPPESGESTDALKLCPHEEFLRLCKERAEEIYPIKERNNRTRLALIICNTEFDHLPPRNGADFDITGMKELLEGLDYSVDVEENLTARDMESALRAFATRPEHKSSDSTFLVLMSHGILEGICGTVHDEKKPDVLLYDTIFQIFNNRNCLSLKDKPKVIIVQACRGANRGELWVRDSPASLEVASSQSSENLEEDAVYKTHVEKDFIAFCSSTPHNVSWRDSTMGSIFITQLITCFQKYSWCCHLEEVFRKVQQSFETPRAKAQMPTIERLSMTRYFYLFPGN

`CC(=O)N[C@@H](CC(=O)O)C(=O)NC1N=C(c2ccccc2)c2ccccc2N(CC(=O)N[C@H]2CC(=O)OC2O)C1=O` (stereo partly drawn) gave an Activity (Caspase-6 (Homo sapiens)) of 58%, an Activity (Caspase-3 (Homo sapiens)) of 9% and an Activity (Caspase-4 (Homo sapiens)) of 95%.
